Test results from US20130252890A1, “6,7-DIHYDRO-5H-BENZO[7]ANNULENE DERIVATIVES, PROCESS FOR PREPARATION THEREOF, PHARMACEUTICAL PREPARATIONS COMPRISING THEM, AND THE USE THEREOF FOR PRODUCTION OF MEDICAMENTS” (BAYER INTELLECTUAL PROPERTY GMBH, priority 2010, published 2013).

The compounds below were run against T1, oestrogen receptor (ER) (Homo sapiens, UniProt P03372) (assay: Anti-oestrogenic action in MVLN cells (inhibition of estradiol-induced luciferase)). Conditions: inhibition of estradiol-induced luciferase signal, value of Ex. 44 is a mean value, read-out: Antioestrogenic action in vitro: MVLN transactivation antagonism IC50.
T1 construct: These MVLN cells express, along with the functional oestrogen receptor (ER), a reporter construct; endogenous in cells; host or cells: MVLN cells (MCF7 derivative carrying a luciferase reporter construct)
T1 sequence (P03372 1-595): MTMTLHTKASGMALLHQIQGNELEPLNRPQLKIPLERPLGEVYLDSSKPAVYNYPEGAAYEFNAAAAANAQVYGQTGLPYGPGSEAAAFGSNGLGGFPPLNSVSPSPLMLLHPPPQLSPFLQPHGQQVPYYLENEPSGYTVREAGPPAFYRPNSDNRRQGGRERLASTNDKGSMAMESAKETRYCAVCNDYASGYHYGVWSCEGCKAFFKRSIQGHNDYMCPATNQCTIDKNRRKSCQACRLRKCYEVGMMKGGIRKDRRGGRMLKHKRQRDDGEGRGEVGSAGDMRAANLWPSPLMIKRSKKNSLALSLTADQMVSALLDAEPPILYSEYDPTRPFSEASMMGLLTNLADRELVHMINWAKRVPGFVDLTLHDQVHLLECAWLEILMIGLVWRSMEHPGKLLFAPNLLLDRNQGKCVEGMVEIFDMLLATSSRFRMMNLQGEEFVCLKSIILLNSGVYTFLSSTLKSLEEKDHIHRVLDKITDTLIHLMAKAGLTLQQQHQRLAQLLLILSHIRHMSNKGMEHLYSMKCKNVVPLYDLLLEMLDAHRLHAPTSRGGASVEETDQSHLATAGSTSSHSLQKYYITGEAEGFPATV
Type: cell-based
Excerpt: The anti-oestrogenic action of the claimed pharmacological compounds was investigated in so-called MVLN cells in vitro. MVLN cells are derivatives of the hormone-responsive MCF7 breast cancer cells known by a person skilled in the art. These MVLN cells express, along with the functional oestrogen receptor (ER), a reporter construct, which under ER-activation expresses luciferase. Determination of the activity of the induced luciferase permits a direct conclusion on the oestrogen properties of substances. To investigate the anti-oestrogenic properties of the pharmacological compounds, they were investigated in the presence of oestrogen for their potential for inhibiting the luciferase signal induced by estradiol. The claimed pharmacological test substances were investigated in MVLN cells for their anti-oestrogenic potential, as described (see Table 2).

Row | SMILES | IC50 [nM]
1 | CN(CCCCCCC1=C(c2ccc(F)cc2)CCCc2c1ccc(O)c2F)CCCSCCCC(F)(F)C(F)(F)F [Example 86, 4-Fluoro-8-(4-fluorophenyl)-9-[6-(methyl{3-[(4,4,5,5,5-pentafluoropentyl)sulphanyl]propyl}amino)hexyl]-6,7-dihydro-5H-benzo[7]annulen-3-ol] | 25
2 | COCCN(CCCCCCC1=C(c2ccc(F)c(F)c2)CCCc2cc(O)ccc21)CCCS(=O)(=O)CCCC(F)(F)C(F)(F)F [Example 31, 8-(3,4-Difluorophenyl)-9-{6-[(2-methoxyethyl){3-[(4,4,5,5,5-pentafluoropentyl)sulphonyl]propyl}amino]hexyl}-6,7-dihydro-5H-benzo[7]annulen-3-ol] | 16
3 | CN(CCCCCCC1=C(c2cc(F)cc(F)c2)CCCc2cc(O)ccc21)CCCCS(=O)(=O)CCCC(F)(F)C(F)(F)F [Example 9, 8-(3,5-Difluorophenyl)-9-[6-(methyl{4-[(4,4,5,5,5-pentafluoropentyl)sulphonyl]butyl}amino)hexyl]-6,7-dihydro-5H-benzo[7]annulen-3-ol] | 17
4 | O=C(CN(CCCCCCC1=C(c2ccc(F)cc2)CCCc2cc(O)ccc21)CCCCS(=O)(=O)CCCC(F)(F)F)OCc1ccccc1 [Example 81, Benzyl-N-{6-[8-(4-fluorophenyl)-3-hydroxy-6,7-dihydro-5H-benzo[7]annulen-9-yl]hexyl}-N-{4-[(4,4,4-trifluorobutyl)sulphonyl]butyl}glycinate] | 40
5 | CC(C)(O)CN(CCCCCCC1=C(c2cc(F)cc(F)c2)CCCc2cc(O)ccc21)CCC[S+]([O-])CCC(F)(F)F (stereo not drawn) [Example 10, 8-(3,5-Difluorophenyl)-9-{6-[(2-hydroxy-2-methylpropyl){3-[(3,3,3-trifluoropropyl)sulphinyl]propyl}amino]hexyl}-6,7-dihydro-5H-benzo[7]annulen-3-ol] | 38
6 | CN(CCCCCCC1=C(c2ccc(F)cc2)CCCc2cc(O)ccc21)CCCSCCCC(F)(F)C(F)(F)F [Example 78, 8-(4-Fluorophenyl)-9-[6-(methyl{3-[(4,4,5,5,5-pentafluoropentyl)sulphanyl]propyl}amino)hexyl]-6,7-dihydro-5H-benzo[7]annulen-3-ol] | 31
7 | O=S(=O)(CCCN(CCCCCCC1=C(c2ccc(F)cc2)CCCc2c1ccc(O)c2F)CC(F)(F)F)CCCC(F)(F)C(F)(F)F [Example 84, 4-Fluoro-8-(4-fluorophenyl)-9-{6-[{3-[(4,4,5,5,5-pentafluoropentyl)sulphonyl]propyl}(2,2,2-trifluoroethyl)amino]hexyl}-6,7-dihydro-5H-benzo[7]annulen-3-ol] | 252
8 | O=S(=O)(CCCN(CCO)CCCCCCC1=C(c2ccc(F)cc2)CCCc2c1ccc(O)c2F)CCC(F)(F)F [Example 61, 4-Fluoro-8-(4-fluorophenyl)-9-{6-[(2-hydroxyethyl){3-[(3,3,3-trifluoropropyl)sulphonyl]propyl}amino]hexyl}-6,7-dihydro-5H-benzo[7]annulen-3-ol] | 24
9 | O=S(=O)(CCCCNCCCCCCC1=C(c2cc(F)cc(F)c2)CCCc2cc(O)ccc21)CCCC(F)(F)F [Example 67, 8-(3,5-Difluorophenyl)-9-[6-({4-[(4,4,4-trifluorobutyl)sulphonyl]butyl}amino)hexyl]-6,7-dihydro-5H-benzo[7]annulen-3-ol] | 20
10 | O=S(=O)(CCCCN(CCO)CCCCCCC1=C(c2ccc(F)cc2)CCCc2cc(O)c(F)cc21)CCC(F)(C(F)(F)F)C(F)(F)F [Example 138, 2-Fluoro-8-(4-fluorophenyl)-9-{6-[(2-hydroxyethyl)(4-{[3,4,4,4-tetrafluoro-3-(trifluoromethyl)butyl]sulphonyl}butyl)amino]hexyl}-6,7-dihydro-5H-benzo[7]annulen-3-ol] | 21
11 | O=S(=O)(CCCN(CCCO)CCCCCCC1=C(c2ccc(F)cc2)CCCc2c1ccc(O)c2F)CCCC(F)(F)C(F)(F)F [Example 60, 4-Fluoro-8-(4-fluorophenyl)-9-{6-[(3-hydroxypropyl){3-[(4,4,5,5,5-pentafluoropentyl)sulphonyl]propyl}amino]hexyl}-6,7-dihydro-5H-benzo[7]annulen-3-ol] | 15
12 | CN(CCCCCCC1=C(c2ccc(F)cc2F)CCCc2cc(O)ccc21)CCCS(=O)(=O)CCC(F)(F)F [Example 130, 8-(2,4-Difluorophenyl)-9-[6-(methyl{3-[(3,3,3-trifluoropropyl)sulphonyl]propyl}amino)hexyl]-6,7-dihydro-5H-benzo[7]annulen-3-ol] | 16
13 | CN(CCCCCCC1=C(c2ccc(F)cc2)CCCc2c1ccc(O)c2F)CCCCS(=O)(=O)CCC(F)(F)F [Example 50, 4-Fluoro-8-(4-fluorophenyl)-9-[6-(methyl{4-[(3,3,3-trifluoropropyl)sulphonyl]butyl}amino)hexyl]-6,7-dihydro-5H-benzo[7]annulen-3-ol] | 16
14 | CN(CCCCCC1=C(c2ccc(F)cc2)CCCc2cc(O)ccc21)CCCCS(=O)(=O)CCC(F)(F)F [Example 52, 8-(4-Fluorophenyl)-9-[5-(methyl{4-[(3,3,3-trifluoropropyl)sulphonyl]butyl}amino)pentyl]-6,7-dihydro-5H-benzo[7]annulen-3-ol] | 521

Now those with a lower IC50, led by results:

Row | IC50 [nM] | SMILES
15 | 4 | CN(CCCCCCC1=C(c2ccc(F)cc2F)CCCc2cc(O)ccc21)CCCCS(=O)(=O)CCCC(F)(F)F [Example 132, 8-(2,4-Difluorophenyl)-9-[6-(methyl{4-[(4,4,4-trifluorobutyl)sulphonyl]butyl}amino)hexyl]-6,7-dihydro-5H-benzo[7]annulen-3-ol]
16 | 6 | C[C@@H](O)CN(CCCCCCC1=C(c2ccc(F)cc2)CCCc2cc(O)ccc21)CCCCS(=O)(=O)CCCC(F)(F)F [Example 98]
17 | 10 | CN(CCCCCCC1=C(c2ccc(F)cc2)CCCc2c1ccc(O)c2F)CCCS(=O)(=O)CCCCC(F)(F)F [Example 87, 4-Fluoro-8-(4-fluorophenyl)-9-[6-(methyl{3-[(5,5,5-trifluoropentyl)sulphonyl]propyl}amino)hexyl]-6,7-dihydro-5H-benzo[7]annulen-3-ol]
18 | 7 | [2H]C([2H])([2H])N(CCCCCCC1=C(c2ccc(F)cc2)CCCc2cc(O)ccc21)CCCS(=O)(=O)CCCCC(F)(F)F [Example 139, 8-(4-Fluorophenyl)-9-{6-[(^2H3)methyl{3-[(5,5,5-trifluoropentyl)sulphonyl]propyl}amino]hexyl}-6,7-dihydro-5H-benzo[7]annulen-3-ol]
19 | 13 | COC(=O)CCN(CCCCCCC1=C(c2ccc(F)cc2)CCCc2cc(O)ccc21)CCCCS(=O)(=O)CCCC(F)(F)F [Example 83, Methyl-N-{6-[8-(4-fluorophenyl)-3-hydroxy-6,7-dihydro-5H-benzo[7]annulen-9-yl]hexyl}-N-{4-[(4,4,4-trifluorobutyl)sulphonyl]butyl}-beta-alaninate]
20 | 8 | CN(CCCCCCC1=C(c2ccc(F)c(F)c2)CCCc2cc(O)ccc21)CCC[S+]([O-])CCCC(F)(F)C(F)(F)F (stereo not drawn) [Example 24, 8-(3,4-Difluorophenyl)-9-[6-(methyl{3-[(4,4,5,5,5-pentafluoropentyl)sulphinyl]propyl}amino)hexyl]-6,7-dihydro-5H-benzo[7]annulen-3-ol]
21 | 5 | C[C@H](O)CN(CCCCCCC1=C(c2ccc(F)cc2)CCCc2cc(O)ccc21)CCCCS(=O)(=O)CCCC(F)(F)F [Example 93, 8-(4-Fluorophenyl)-9-[6-([(2S)-2-hydroxypropyl]{4-[(4,4,4-trifluorobutyl)sulphonyl]butyl}amino)hexyl]-6,7-dihydro-5H-benzo[7]annulen-3-ol]
22 | 11 | CN(CCCCCCC1=C(c2ccc(F)cc2)CCCc2cc(O)ccc21)CCCCS(=O)(=O)CCC(F)(F)C(F)(F)F [Example 75, 8-(4-Fluorophenyl)-9-[6-(methyl{4-[(3,3,4,4,4-pentafluorobutyl)sulphonyl]butyl}amino)hexyl]-6,7-dihydro-5H-benzo[7]annulen-3-ol]
23 | 9 | CN(CCCCCCC1=C(c2cc(F)ccc2F)CCCc2cc(O)ccc21)CCCCS(=O)(=O)CCCC(F)(F)F [Example 143, 8-(2,5-Difluorophenyl)-9-[6-(methyl{4-[(4,4,4-trifluorobutyl)sulphonyl]butyl}amino)hexyl]-6,7-dihydro-5H-benzo[7]annulen-3-ol]
24 | 6 | [2H]C([2H])([2H])N(CCCCCCC1=C(c2cc(F)ccc2F)CCCc2cc(O)ccc21)CCCS(=O)(=O)CCCCC(F)(F)F [Example 137, 8-(2,5-Difluorophenyl)-9-{6-[(^2H3)methyl{3-[(5,5,5-trifluoropentyl)sulphonyl]propyl}amino]hexyl}-6,7-dihydro-5H-benzo[7]annulen-3-ol]
